{"source": "patent US20150038447A1", "about": "“ORGAN PROTECTION, PRESERVATION AND RECOVERY” (Hibernation Therapeutics, A KF LLC, priority 2007, published 2015)", "origin": "cited, not measured here", "key": {"[1]": {"target": "T1, NK(2) receptor (Homo sapiens, UniProt P21452)", "T1 sequence (P21452 1-398)": "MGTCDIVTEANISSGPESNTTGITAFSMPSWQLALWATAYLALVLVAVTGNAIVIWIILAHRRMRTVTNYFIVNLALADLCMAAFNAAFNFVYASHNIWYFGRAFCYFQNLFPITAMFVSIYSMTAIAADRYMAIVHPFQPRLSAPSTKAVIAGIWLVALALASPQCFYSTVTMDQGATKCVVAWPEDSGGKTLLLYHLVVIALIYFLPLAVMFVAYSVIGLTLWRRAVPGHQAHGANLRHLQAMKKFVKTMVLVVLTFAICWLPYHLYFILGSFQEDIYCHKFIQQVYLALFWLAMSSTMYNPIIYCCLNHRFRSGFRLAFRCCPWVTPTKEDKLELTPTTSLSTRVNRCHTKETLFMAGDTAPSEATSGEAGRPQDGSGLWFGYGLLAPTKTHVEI", "details": "NK(1) versus NK(2)"}, "[2]": {"target": "T2, NK(3) receptor (Homo sapiens, UniProt P29371)", "T2 sequence (P29371 1-465)": "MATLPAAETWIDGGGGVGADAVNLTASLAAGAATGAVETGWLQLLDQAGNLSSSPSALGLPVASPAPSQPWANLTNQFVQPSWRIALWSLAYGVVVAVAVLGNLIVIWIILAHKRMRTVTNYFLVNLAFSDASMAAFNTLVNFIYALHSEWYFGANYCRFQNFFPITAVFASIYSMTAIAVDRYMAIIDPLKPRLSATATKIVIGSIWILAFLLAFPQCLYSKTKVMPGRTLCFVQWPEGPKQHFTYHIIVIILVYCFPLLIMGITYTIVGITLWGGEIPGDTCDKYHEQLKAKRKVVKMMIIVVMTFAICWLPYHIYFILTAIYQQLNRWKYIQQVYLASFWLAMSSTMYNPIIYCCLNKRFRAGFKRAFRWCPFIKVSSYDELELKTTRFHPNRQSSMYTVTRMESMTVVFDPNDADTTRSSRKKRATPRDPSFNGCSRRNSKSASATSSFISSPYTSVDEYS", "details": "NK(1) versus NK(3)"}, "[3]": {"target": "human NK(1) receptor (Homo sapiens, UniProt P25103)", "sequence (P25103 whole entry)": "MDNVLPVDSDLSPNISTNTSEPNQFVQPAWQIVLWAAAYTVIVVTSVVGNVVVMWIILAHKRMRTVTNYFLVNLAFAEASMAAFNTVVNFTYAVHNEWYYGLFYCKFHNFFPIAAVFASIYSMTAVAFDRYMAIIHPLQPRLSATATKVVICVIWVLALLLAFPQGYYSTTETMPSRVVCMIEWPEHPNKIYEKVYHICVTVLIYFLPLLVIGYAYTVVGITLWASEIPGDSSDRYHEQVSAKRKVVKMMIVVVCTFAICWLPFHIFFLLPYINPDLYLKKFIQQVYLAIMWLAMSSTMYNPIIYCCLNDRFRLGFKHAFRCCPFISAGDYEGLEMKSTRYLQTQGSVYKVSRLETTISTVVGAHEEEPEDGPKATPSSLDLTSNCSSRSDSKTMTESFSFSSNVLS"}, "[4]": {"test_system": "anaesthetised rats", "details": "previous studies (Canyon and Dobson, 2004)"}, "[5]": {"target": "T3, adenosine deaminase (Bos taurus, UniProt P56658)", "T3 construct": "from tissue; host or cells: calf intestinal mucosa", "T3 sequence (P56658 whole entry)": "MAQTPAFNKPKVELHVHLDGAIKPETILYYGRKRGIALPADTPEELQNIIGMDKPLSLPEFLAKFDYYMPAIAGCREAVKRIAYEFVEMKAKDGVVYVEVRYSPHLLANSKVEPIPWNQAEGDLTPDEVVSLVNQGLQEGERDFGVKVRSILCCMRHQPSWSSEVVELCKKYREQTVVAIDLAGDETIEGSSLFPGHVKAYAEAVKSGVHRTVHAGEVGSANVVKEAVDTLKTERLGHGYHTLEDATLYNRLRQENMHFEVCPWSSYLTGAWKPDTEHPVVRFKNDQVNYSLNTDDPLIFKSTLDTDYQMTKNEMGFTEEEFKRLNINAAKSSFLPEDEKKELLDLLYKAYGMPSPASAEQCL", "details": "calf intestinal mucosa; read-out: Ki (competitive inhibitor of adenosine deaminase)"}, "[6]": {"details": "given orally and/or intravenous at 10, 25, 50, and 100 mg/kg body weight"}, "[7]": {"details": "in vivo"}, "[8]": {"details": "400 mg daily tablets"}}, "data": [{"smiles": "Cc1cccc(C)c1NC(=O)C[C@H]1CCN(C(=O)c2cc(C(F)(F)F)cc(C(F)(F)F)c2)[C@@H](Cc2ccccc2)C1.O=C(O)C[C@H](O)C(=O)O", "note": "(relative stereo) [R116301, (2R-trans)-4-[1-[3,5-bis(trifluoromethyl)benzoyl]-2-(phenylmethyl)-4-piperidinyl]-N-(2,6-dimethylphenyl)-1-acetamide (S)-Hydroxybutanedioate]", "values": [{"measurement": "selectivity toward NK(2) receptor", "setting": "[1]", "result": "over 200 fold"}, {"measurement": "selectivity toward NK(3) receptor", "setting": "[2]", "result": "over 200 fold"}, {"measurement": "Ki", "setting": "[3]", "result": 0.45, "unit": "nM"}]}, {"smiles": "Nc1ncnc2c1ncn2[C@@H]1O[C@H](CO)[C@@H](O)[C@H]1O", "note": "[adenosine]", "values": [{"measurement": "animals that die during 30 min ischaemia from VF", "setting": "[4]", "result": "about 50%"}, {"measurement": "half life in the blood", "result": "about 10 seconds"}]}, {"smiles": "NC(=O)c1ncn([C@@H]2O[C@H](CO)[C@@H](O)[C@H]2O)c1N", "note": "[Acadesine, 5-amino-4-imidazole carboxamide ribonucleoside]", "values": [{"measurement": "Ki", "setting": "[5]", "result": 362, "unit": "µM"}, {"measurement": "safety in humans", "setting": "[6]", "result": "safe"}]}, {"smiles": "CSCC[C@@H]1NC(=O)[C@H](CC(C)C)NC(=O)[C@H](CCCNC(=N)N)NC(=O)[C@H](CO)NC(=O)[C@@H]2CSSC[C@@H]3NC(=O)[C@H](CO)NC(=O)CNC(=O)[C@H]([C@@H](C)O)NC(=O)[C@H](CSSC[C@H](N)C(=O)N[C@@H](CCCCN)C(=O)NCC(=O)N[C@@H](CCCCN)C(=O)NCC(=O)N[C@@H](C)C(=O)N[C@@H](CCCCN)C(=O)N2)NC(=O)[C@H](CSSC[C@@H](C(N)=O)NC(=O)[C@H](CCCCN)NC(=O)CNC(=O)[C@H](CO)NC(=O)[C@H](CCCNC(=N)N)NC3=O)NC(=O)[C@H](CC(=O)O)NC(=O)[C@H](Cc2ccc(O)cc2)NC1=O", "note": "[Omega conotoxin MVIIA]", "values": [{"measurement": "potency as an analgesic relative to morphine", "setting": "[7]", "result": "100-1000 fold"}]}, {"smiles": "OCCN(CCO)c1nc(N2CCCCC2)c2nc(N(CCO)CCO)nc(N3CCCCC3)c2n1", "note": "[Dipyridamole]", "values": [{"measurement": "plasma level", "setting": "[8]", "result": "about 0.4 μg/ml"}, {"measurement": "plasma level (concentration)", "setting": "[8]", "result": "~0.8", "unit": "µM"}]}]}
